Values quoted from earlier work in patent EP4434551A1, “METHOD FOR DIAGNOSING AND TREATING NIS-EXPRESSING CARCINOMAS AND METASTASES” (Nuske, Andreas, priority 2023, dated 2024).

Test system: NIS gene
Details: breast cancer cell line MCF-7

CC1=C(/C=C/C(C)=C/C=C/C(C)=C/C(=O)O)C(C)(C)CCC1 [tRA, trans-retinoic acid]
induction of the NIS gene: induction of the NIS gene
